Assay results published in US11370778B2, “Bis(pentahydroxyhexyl)amino substituted 2-{[(3-amino-pyrazin-2-yl)formamido]methyl}-1H-1,3-benzodiazol-3-ium derivatives as ENaC inhibitors for treating respiratory diseases” (ENTERPRISE THERAPEUTICS LIMITED, priority 2017, dated 2022).
Where a name gives a salt, the structure may show the parent alone.

experiment: Bronchoalveolar lavage: compound levels in BAL after intratracheal administration; assay type: in vivo; settings: bronchoalveolar lavage fluid (BAL), other: intratracheal, 0.1 mg/kg, rat, 0.1 mg/mL solution in 5% dextrose, 1 mL/Kg, lungs lavaged after 6 hours, LC/MS/MS
Protocol: Example 9—Bronchoalveolar Lavage A 0.1 mg/mL solution of ENaC inhibitor in 5% dextrose was administered intratracheally to a rat weighing 225-250 g. A volume of 1 mL/Kg was used. After 6 hours, lungs were lavaged with 3×4 mL of sterile saline. A 1 mL aliquot was subsequently snap frozen. Lungs were excised, weighed and snap frozen. Compound levels in the BAL and lung tissue were subsequently determined using LC/MS/MS bioanalysis.

Structure (SMILES) | concentration at 6 h [ng/mL]
CCn1c(CNC(=O)c2nc(Cl)c(N)nc2N)[n+](CC)c2ccc(C(=O)N3CCC(N(C[C@H](O)[C@@H](O)[C@H](O)[C@H](O)CO)C[C@H](O)[C@@H](O)[C@H](O)[C@H](O)CO)CC3)cc21 [Example 1, 6-(4-{bis[(2S,3R,4R,5R)-2,3,4,5,6-pentahydroxyhexyl]amino}piperidine-1-carbonyl)-2-{[(3,5-diamino-6-chloropyrazin-2-yl)formamido]methyl}-1,3-diethyl-1H-1,3-benzodiazol-3-ium trifluoroacetic acid trifluoroacetate] | 222
CCn1c(CNC(=O)c2nc(Cl)c(N)nc2N)[n+](CC)c2ccc(C(=O)N3CCC(CN(C[C@H](O)[C@@H](O)[C@H](O)[C@H](O)CO)C[C@H](O)[C@@H](O)[C@H](O)[C@H](O)CO)CC3)cc21 [Example 3, 6-[4-({bis[(2S,3R,4R,5R)-2,3,4,5,6-pentahydroxyhexyl]amino}methyl)piperidine-1-carbonyl]-2-{[(3,5-diamino-6-chloropyrazin-2-yl)formamido]methyl}-1,3-diethyl-1H-1,3-benzodiazol-3-ium trifluoroacetic acid trifluoroacetate] | 210
CCn1c(CNC(=O)c2nc(Cl)c(N)nc2N)[n+](CC)c2ccc(C(=O)N3CC[C@@H](N(C[C@H](O)[C@@H](O)[C@H](O)[C@H](O)CO)C[C@H](O)[C@@H](O)[C@H](O)[C@H](O)CO)C3)cc21 [Example 4, 6-[(3R)-3-{bis[(2S,3R,4R,5R)-2,3,4,5,6-pentahydroxyhexyl]amino}pyrrolidine-1-carbonyl]-2-{[(3,5-diamino-6-chloropyrazin-2-yl)formamido]methyl}-1,3-diethyl-1H-1,3-benzodiazol-3-ium trifluoroacetic acid trifluoroacetate] | 524
CCn1c(CNC(=O)c2nc(Cl)c(N)nc2N)[n+](CC)c2ccc(C(=O)NCCN(C[C@H](O)[C@@H](O)[C@H](O)[C@H](O)CO)C[C@H](O)[C@@H](O)[C@H](O)[C@H](O)CO)cc21 [Example 5, 6-[(2-{bis[(2S,3R,4R,5R)-2,3,4,5,6-pentahydroxyhexyl]amino}ethyl)carbamoyl]-2-{[(3,5-diamino-6-chloropyrazin-2-yl)formamido]methyl}-1,3-diethyl-1H-1,3-benzodiazol-3-ium trifluoroacetic acid trifluoroacetate] | 471

Other lines, results leading:

concentration at 6 h [ng/mL] | Structure (SMILES)
251 | CCn1c(CNC(=O)c2nc(Cl)c(N)nc2N)[n+](CC)c2ccc(C(=O)NCCOCCOCCOCCN(C[C@H](O)[C@@H](O)[C@H](O)[C@H](O)CO)C[C@H](O)[C@@H](O)[C@H](O)[C@H](O)CO)cc21 [Example 6, 2-{[(3,5-diamino-6-chloropyrazin-2-yl)formamido]methyl}-1,3-diethyl-6-{[(14S,15R,16R,17R)-14,15,16,17,18-pentahydroxy-12-[(2S,3R,4R,5R)-2,3,4,5,6-pentahydroxyhexyl]-3,6,9-trioxa-12-azaoctadecan-1-yl]carbamoyl}-1H-1,3-benzodiazol-3-ium trifluoroacetic acid trifluoroacetate]
645 | CCn1c(CNC(=O)c2nc(Cl)c(N)nc2N)[n+](CC)c2ccc(C(=O)NCCc3ccc(-c4ccc(CCN(C[C@H](O)[C@@H](O)[C@H](O)[C@H](O)CO)C[C@H](O)[C@@H](O)[C@H](O)[C@H](O)CO)cc4)cc3)cc21 [Example 7, 6-({2-[4′-(2-{bis[(2S,3R,4R,5R)-2,3,4,5,6-pentahydroxyhexyl]amino}ethyl)-[1,1′-biphenyl]-4-yl]ethyl}carbamoyl)-2-{[(3,5-diamino-6-chloropyrazin-2-yl)formamido]methyl}-1,3-diethyl-1H-1,3-benzodiazol-3-ium trifluoroacetic acid trifluoroacetate]
